For this assay, the system named is S. cerevisiae CDRE-lacZ reporter, CaCl2, luminescence. The assay is described as follows: calcineurin pathway inhibitors in yeast reporter, dose response, S. cerevisiae, CDRE-lacZ, luminescence, secondary (AID 2388).

Each structure is given as a SMILES string. Activity calls are given as the source filed them.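 Rule for the calls: active = fitted EC50 no more than ten times the top tested dose; inconclusive = flat fit with 30% to 70% inhibition, or a poor fit; inactive = EC50 beyond ten times the top tested dose.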

What is called EC50 is the concentration giving half of the maximal effect. As for `CC1CCC(C(C)C)C(OC(=O)Cn2c(-c3ccc(Br)cc3)[n+](C)c3ccccc32)C1` (configuration not stated), the EC50 was > 18 µM (inactive).

As to `NC(=NCCCCCCN=C(N)/N=C(\N)Nc1ccc(Cl)cc1)/N=C(\N)Nc1ccc(Cl)cc1`, the EC50 is > 18 µM (inactive).

The record behind these values is PubChem BioAssay AID2388 (Broad Institute, 2010).
